Results on one compound are retold here after BindingDB's records for doi:10.1021/cb500512z (University of Wisconsin-Milwaukee, 2014).

Each structure is given as a SMILES string. pIC50: −log10 of the molar value.

The target of this assay is Genome polyprotein (Hepacivirus C, UniProt A3EZJ3). The assay is described as follows: EMSA. To be noted: pH 7.5; 23 °C. How it is done:
Binding assays containing 25 mM MOPS pH 7.5, 1.25 mM MgCl2, 20 nM Cy5-dT15, and 200 nM NS3h_1b were incubated 5 min at RT. Following addition of indicated concentrations of ebselen, the binding reactions were incubated another 5 min at 23 C.

Sequence of Genome polyprotein (A3EZJ3 whole entry): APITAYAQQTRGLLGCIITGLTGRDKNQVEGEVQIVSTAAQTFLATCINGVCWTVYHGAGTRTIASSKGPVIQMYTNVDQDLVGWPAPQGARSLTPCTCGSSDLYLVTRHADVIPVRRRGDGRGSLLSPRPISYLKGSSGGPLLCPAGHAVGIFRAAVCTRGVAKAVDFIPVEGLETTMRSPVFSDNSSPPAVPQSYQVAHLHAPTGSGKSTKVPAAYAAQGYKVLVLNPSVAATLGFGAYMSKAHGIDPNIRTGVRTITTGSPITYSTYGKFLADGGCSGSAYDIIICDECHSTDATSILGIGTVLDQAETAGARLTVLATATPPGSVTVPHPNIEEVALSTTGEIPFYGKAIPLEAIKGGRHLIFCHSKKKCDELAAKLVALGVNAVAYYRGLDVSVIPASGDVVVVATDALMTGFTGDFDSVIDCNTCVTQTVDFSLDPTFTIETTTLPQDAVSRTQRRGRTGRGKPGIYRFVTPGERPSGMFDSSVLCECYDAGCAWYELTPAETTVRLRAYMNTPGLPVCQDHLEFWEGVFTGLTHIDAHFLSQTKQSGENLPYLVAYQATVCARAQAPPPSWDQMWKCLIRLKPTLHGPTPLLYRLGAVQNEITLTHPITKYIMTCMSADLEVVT

Consider `Cc1ccccc1NC(=O)Cn1sc2ccccc2c1=O`, for which the pIC50 (usually −log10 of the IC50, conventionally taken in molar units) is 5.41.
